Data from patent US9428447B2, “Bis-(aryl/heteroaryl)-methylene compounds, pharmaceutical compositions containing same and their use for treating cancer” (The Royal Institution For The Advancement of …, priority 2011, dated 2016).

What was measured:
[1] = test system: 60 cell panel of human carcinoma cell lines; experiment: National Cancer Institute 60 cell panel (overall); type: cell-based
SCC4 cells = experiment: MTS cell proliferation assay, SCC4; type: cell-based, human; conditions: vitamin D resistant SCC4 cells; FIGS. 7c, 8 and 9
Excerpt: Dose-dependent effects of compounds on cell cycle progression was monitored using a CellTiter 96 Aqueous Non-Radioactive Cell Proliferation Assay Kit (Promega). The assay composed of solutions of a novel tetrazolium compound (MTS) and an electron coupling reagent (phenazine methosulfate; PMS). MTS is reduced by metabolically active cells into a soluble formazan product that absorbs at 490 nm. The quantity of formazan product absorbing at 490 nm is directly proportional to the number of living cells.

VDR = VDR (Homo sapiens (Human), UniProt P11473); experiment: VDR agonism: induction of CYP24 gene expression in SCC25 cells (RT/PCR); type: cell-based
Experimental: RNA isolation and RT/PCR analysis. PCR primers against CYP24 (forward, 5',5'-[NT], reverse, 5'-[NT] designed using Primer3 software as described and used in […]-Mendoza, Quach, T., Dabbas, B., Hudon, J., Liao, X., Palijan, A., Gleason, J. L., and White, J. H. (2008) Incorporation of histone deacetylase inhibition into the structure of a nuclear receptor agonist. Proc. Nat. Acad. Sci. […] After treatment, cells were washed with PBS, homogenized with 1 ml TRIzol Reagent (Invitrogen, Carlsbad, Calif.), kept at room temperature for 2-5 min, collected and kept at -80° C. for at least 1 h. After, thawing 0.2 ml chloroform was added. After vigorous mixing and storing for 10 min, mixtures were centrifuged (10,000 rpm, 15 min, 4° C.) and the upper transparent layer was transferred to a new tube. 0.5 ml isopropanol was added and the new solution was mixed. After centrifuging at 4° C., the supernatant was discarded and 1 ml of 75% ethanol was added. After centrifuging and discarding the supernatant, the pellet was air-dried for 5-10 min, and then dissolved in ddH2O. RNA concentrations were measured using a spectrophotometer, and 1-3 μg of RNA were loaded for reverse transcriptase reactions (total volume: 20 μl). 80 μl of ddH2O was added to the RT-product, and 1.5 μl of that was used as template for the PCR reaction. Reverse transcriptase (Super Script II) was purchased from Invitrogen (Carlsbad, Calif.). DNA polymerase and dNTP's were ordered from Fermentas (Glen Burnie, Md.).

AT84 cells = experiment: EdU cell growth assay, AT84
Experimental: (§1) EdU Cell Growth Assay. Click-iT EdU Alexa Fluor high-throughput imaging (HCS) assay for cell proliferation. HCS assays were performed on AT84 mouse squamous carcinoma cell line (ATCC) following the manufacturer's instruction (Molecular Probes, Invitrogen). […] All samples were in triplicate.

IGROV1 = experiment: NCI 60 cell panel: IGROV1; type: cell-based; conditions: Ovarian Cancer
SCC25 cells = experiment: EdU cell growth assay, SCC25
Experimental: as §1

VDR, sequence (P11473 whole entry): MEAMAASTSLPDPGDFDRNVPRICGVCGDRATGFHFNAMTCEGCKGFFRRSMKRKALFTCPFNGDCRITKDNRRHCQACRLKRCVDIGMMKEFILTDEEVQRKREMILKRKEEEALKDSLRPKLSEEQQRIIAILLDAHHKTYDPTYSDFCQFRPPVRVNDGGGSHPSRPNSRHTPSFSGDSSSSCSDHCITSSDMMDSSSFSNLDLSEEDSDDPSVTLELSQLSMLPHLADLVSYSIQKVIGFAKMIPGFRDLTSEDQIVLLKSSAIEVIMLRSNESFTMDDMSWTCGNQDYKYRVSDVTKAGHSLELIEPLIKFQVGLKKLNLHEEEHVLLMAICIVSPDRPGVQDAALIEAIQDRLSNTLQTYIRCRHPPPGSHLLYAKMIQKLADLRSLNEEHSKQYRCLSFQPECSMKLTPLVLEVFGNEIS

SMILES: CCC(CC)(c1ccc(OCC(=O)NO)c(C)c1)c1ccc(OCC(O)C(C)(C)C)c(C)c1 (racemic) [JF-B01, N-Hydroxy-2-(4-(3-(4-(2-hydroxy-3,3-dimethylbutoxy)-3-methylphenyl)pentan-3-yl)-2-methylphenoxy)acetamide]
- antiproliferative activity in the 60 cell panel ([1]; all cell lines): displayed antiproliferative activity in all cell lines
- full growth inhibition concentration ([1]; melanoma cell lines, 8 out of 9 cell lines): ≤ 7 µM
- antiproliferative potency (MTS) (SCC4 cells): low micromolar potency
- VDR agonist potency relative to 1,25D (fold lower) (VDR; FIG. 1b): approximately 10 fold
- VDR agonist potency relative to LG190178 (VDR; FIG. 1b): equal to or greater than that of LG190178
- VDR agonist activity/potency (CYP24 induction, dose response) (VDR; FIG. 1b, 1d): efficacious agonist
- induction of CYP24 by the compound blocked (consistent with binding to the VDR) (VDR; FIG. 1c): blocked
- VDR agonism by induction of CYP24 gene expression (screen) (VDR; test compounds 10 μM, FIG. 1a): showed any agonist activity against VDR
- antiproliferative potency relative to 1,25D (fold less potent) (AT84 cells): 10 fold
- TGI (IGROV1): 5.25E−6
- antiproliferative potency relative to 1,25D (fold less potent) (SCC25 cells): 10 fold
